From patent US11186817B2, “Chemically defined cell culture media additive” (IUCF-HYU (INDUSTRY-UNIVERSITY COOPERATION FOUNDATION …, priority 2014, dated 2021)

System: CHO DG44 cell line
Assay: Effective concentration range of THF: suspension growth of CHO DG44 in HY-CDM media
Format: cell-based, Chinese hamster
Excerpt: 1. Cell line and media: CHO DG44 cell line was used as a DHFR-deficient cell line. The cell line was passaged 80 times or more and suspension adapted in HY-CDM (in-house) media as chemically defined media. The suspension-adapted cell line was used to evaluate the influence of tetrahydrofolate (THF) and dihydrofolate (DHF) and the growth characteristics in commercial chemically defined media. The HY-CDM media were composed of chemically defined components only. Each HY-CDM medium further included a growth factor. HY-CDM media used in Examples 1, 3, and 4 were free of an animal derived lipid mixture, and HY-CDM media used in Example 2 were supplemented with cod liver oil.
2. Cell suspension culture: The cell line was inoculated at a density of 4×10^5 cells/ml and cultured in an Erlenmeyer flask with a 30 ml/125 ml working volume on an orbital shaker at 120 rpm under humidified conditions at 37° C. and 5% CO2. Before inoculation, the cells were centrifuged at 1,000 rpm (×162 g) for 5 min, the supernatant was discarded, and the remaining cells were dispersed into single cells in the heated medium. The cells were passaged three times to minimize the influence of the remaining medium under the experimental conditions. The subcultured cells were evaluated.
3. Density of live cells: The density of live cells was analyzed using a hemocytometer (Neubauer improved bright-line, Marienfeld, Germany), an inverted microscope (CK30, Olympus, Japan), and trypan blue dye exclusion.
In this example, the effective concentration range of THF inducing the suspension growth of the CHO DG44 cell line in the HY-CDM media was evaluated with varying amounts of THF.
To this end, the CHO DG44 cell line was passaged three time at a THF concentration of 0-480 mg/L, and their maximum cell densities and doubling times were measured.

tetrahydrofolate [THF]
Doubling time, Passage 2 (THF 0.1000 mg/L, HY-CDM): 22.7 h | Doubling time, Passage 3 (THF 0.1000 mg/L, HY-CDM): 18.2 h | Maximum cell density, Average (THF 0.1000 mg/L, HY-CDM): 24.8 ×10^5 cells/ml | Maximum cell density, Passage 1 (THF 0.1000 mg/L, HY-CDM): 27.6 ×10^5 cells/ml | Maximum cell density, Passage 2 (THF 0.1000 mg/L, HY-CDM): 21.8 ×10^5 cells/ml | Maximum cell density, Passage 3 (THF 0.1000 mg/L, HY-CDM): 24.9 ×10^5 cells/ml | Doubling time, Average (THF 0.2000 mg/L, HY-CDM): 20.8 h | Doubling time, Passage 1 (THF 0.2000 mg/L, HY-CDM): 22.7 h | Doubling time, Passage 2 (THF 0.2000 mg/L, HY-CDM): 21.4 h | Doubling time, Passage 3 (THF 0.2000 mg/L, HY-CDM): 18.3 h | Maximum cell density, Average (THF 0.2000 mg/L, HY-CDM): 25.9 ×10^5 cells/ml | Maximum cell density, Passage 1 (THF 0.2000 mg/L, HY-CDM): 26.6 ×10^5 cells/ml | Maximum cell density, Passage 2 (THF 0.2000 mg/L, HY-CDM): 25.0 ×10^5 cells/ml | Maximum cell density, Passage 3 (THF 0.2000 mg/L, HY-CDM): 26.1 ×10^5 cells/ml | Cell density increase (THF 0.4 mg/L, HY-CDM): about 56% | Doubling time, Average (THF 0.4000 mg/L, HY-CDM): 22.1 h | Doubling time, Passage 1 (THF 0.4000 mg/L, HY-CDM): 22.7 h | Doubling time, Passage 2 (THF 0.4000 mg/L, HY-CDM): 24.5 h | Doubling time, Passage 3 (THF 0.4000 mg/L, HY-CDM): 19.2 h | Maximum cell density, Average (THF 0.4000 mg/L, HY-CDM): 29.7 ×10^5 cells/ml | Maximum cell density, Passage 1 (THF 0.4000 mg/L, HY-CDM): 30.2 ×10^5 cells/ml | Maximum cell density, Passage 2 (THF 0.4000 mg/L, HY-CDM): 28.1 ×10^5 cells/ml | Maximum cell density, Passage 3 (THF 0.4000 mg/L, HY-CDM): 30.9 ×10^5 cells/ml | Cell density increase (THF 0.8 mg/L, HY-CDM): ~73% | Doubling time, Average (THF 0.8000 mg/L, HY-CDM): 20.7 h | Doubling time, Passage 1 (THF 0.8000 mg/L, HY-CDM): 22.1 h | Doubling time, Passage 2 (THF 0.8000 mg/L, HY-CDM): 22.2 h | Doubling time, Passage 3 (THF 0.8000 mg/L, HY-CDM): 17.6 h | Maximum cell density, Average (THF 0.8000 mg/L, HY-CDM): 35.3 ×10^5 cells/ml | Maximum cell density, Passage 1 (THF 0.8000 mg/L, HY-CDM): 34.2 ×10^5 cells/ml | Maximum cell density, Passage 2 (THF 0.8000 mg/L, HY-CDM): 35.4 ×10^5 cells/ml | Maximum cell density, Passage 3 (THF 0.8000 mg/L, HY-CDM): 36.4 ×10^5 cells/ml | Doubling time, Average (THF 1.6000 mg/L, HY-CDM): 21.3 h | Doubling time, Passage 1 (THF 1.6000 mg/L, HY-CDM): 21.4 h | Doubling time, Passage 2 (THF 1.6000 mg/L, HY-CDM): 22.0 h | Doubling time, Passage 3 (THF 1.6000 mg/L, HY-CDM): 20.5 h | Maximum cell density, Average (THF 1.6000 mg/L, HY-CDM): 46.9 ×10^5 cells/ml | Maximum cell density, Passage 1 (THF 1.6000 mg/L, HY-CDM): 46.0 ×10^5 cells/ml | Maximum cell density, Passage 2 (THF 1.6000 mg/L, HY-CDM): 47.0 ×10^5 cells/ml | Maximum cell density, Passage 3 (THF 1.6000 mg/L, HY-CDM): 47.8 ×10^5 cells/ml | Doubling time, Average (THF 16.0000 mg/L, HY-CDM): 21.2 h | Doubling time, Passage 1 (THF 16.0000 mg/L, HY-CDM): 22.5 h | Doubling time, Passage 2 (THF 16.0000 mg/L, HY-CDM): 21.2 h | Doubling time, Passage 3 (THF 16.0000 mg/L, HY-CDM): 19.8 h | Maximum cell density, Average (THF 16.0000 mg/L, HY-CDM): 50.1 ×10^5 cells/ml | Maximum cell density, Passage 1 (THF 16.0000 mg/L, HY-CDM): 52.0 ×10^5 cells/ml | Maximum cell density, Passage 2 (THF 16.0000 mg/L, HY-CDM): 48.8 ×10^5 cells/ml | Maximum cell density, Passage 3 (THF 16.0000 mg/L, HY-CDM): 49.6 ×10^5 cells/ml | Doubling time (THF 0.025-16 mg/L, HY-CDM): 21.3 ± 0.7 h | More rapid cell growth compared to control (THF 0.025-16 mg/L, HY-CDM): ≥ 14% | Effect on cell growth (THF 0.1-160 mg/L, chemically defined media): effective in improving the cell growth | Cell growth increase (THF 0.1-0.2 ma/L, HY-CDM): ≥ 35% | Cell density increase (THF 160 mg/L, HY-CDM): ~90% | Doubling time, Average (THF 160.0000 mg/L, HY-CDM): 23.0 h | Doubling time, Passage 1 (THF 160.0000 mg/L, HY-CDM): 25.8 h | Doubling time, Passage 2 (THF 160.0000 mg/L, HY-CDM): 21.6 h | Doubling time, Passage 3 (THF 160.0000 mg/L, HY-CDM): 21.6 h | Maximum cell density, Average (THF 160.0000 mg/L, HY-CDM): 35.7 ×10^5 cells/ml | Maximum cell density, Passage 1 (THF 160.0000 mg/L, HY-CDM): 33.0 ×10^5 cells/ml | Maximum cell density, Passage 2 (THF 160.0000 mg/L, HY-CDM): 36.4 ×10^5 cells/ml | Maximum cell density, Passage 3 (THF 160.0000 mg/L, HY-CDM): 37.6 ×10^5 cells/ml | Effect on cell growth (THF 480 mg/L, HY-CDM): inhibited the cell growth | Maximum cell density, Average (THF 480.0000 mg/L, HY-CDM): 06.3 ×10^5 cells/ml | Maximum cell density, Passage 1 (THF 480.0000 mg/L, HY-CDM): 09.4 ×10^5 cells/ml | Maximum cell density, Passage 2 (THF 480.0000 mg/L, HY-CDM): 04.6 ×10^5 cells/ml | Maximum cell density, Passage 3 (THF 480.0000 mg/L, HY-CDM): 04.8 ×10^5 cells/ml | Cell density increase (maximum) (THF 1.6-16 mg/L, HY-CDM): ≥ 155%
